Results on eight compounds are retold here after patent US10647680B2, “Urea compound, preparation method therefor and medical use thereof” (Ancureall Pharmaceutical (Shanghai) Co., Ltd., priority 2016, dated 2020).

Assay [1] relates to MV4-11 (FLT3 ITD+/+ mutant type). Nature of the assay: In vitro growth inhibition (GI50), MV4-11. The assay is classed as cell-based, human. The following applies: Homo sapiens, MV4-11; Cell lines of leukemia; read-out: GI 50 MV4-11 FLT3 (ITD +/+). An excerpt:
(§1) 1. Cell Lines and Cell Cultures
(§2) Tumor cell line is an effective cell model for studying the inhibition of tumor cell growth or proliferation in vitro. In the present invention, a representative tumor cell line was selected to determine the cell growth inhibition activity of the present compound. All cell lines used were from ATCC, DSMZ, and the Cell Bank of the Chinese Academy of Sciences. Cell culture conditions and methods were in accordance with the requirements of each cell line. Cells were subcultured in vitro for no more than 3 passages each time, and as required, single-clone purification and identification of cell lines could be carried out.
(§3) The cell culture media used were RPMI1640 (Gibco), MEM (Gibco), McCOY'S5A (Gibco), and IMDM (Gibco). The complete medium was prepared by supplement with 5˜20% fetal calf serum (Gibco), 1% double-antibiotics (10000 units/mL penicillin and 10000 units/mL), 2 mM glutamine or 1 mM sodium pyruvate, respectively.
(§4) The human acute […] monomonocyte leukemia cell line MV4-11 (FLT3 ITD+/+ mutant type, ATCC) was cultured in a complete medium comprising 1×IMDM and 10% FBS. Human acute myeloid leukemia cell line MOLM-13 (FLT3 ITD+/− mutant type, DSMZ), human acute lymphoblastic leukemia cell line RS4; 11 (FLT3 wild type, ATCC), human chronic granulocytic leukemia cell line K562 (FLT3 negative expression, positive expression of BCR-ABL fusion protein, ATCC), human promyelocytic leukemia cell line HL-60 (FLT3 wild type, ATCC), human B lymphoblastic leukemia cell line RAMOS (positive expression of Brutons tyrosine protein kinase, ATCC), human acute myeloid leukemia cell line Kasumi-1 (c-Kit N822K mutant type, ATCC), human acute monocytic leukemia cell line U937 (FLT3 wild-type, ATCC), human acute myeloid leukemia cell line OCI-AML3 (NPMc+ mutant type, ATCC), human acute myeloid leukemia cell line KG-1 (expressing FGFR1OP2-FGFR1 fusion protein, ATCC) were cultured in a complete medium comprising 1×RPMI1640 and 10% FBS, respectively.
(§5) The suspension cells were collected by centrifugation. The supernatant was discarded and the cell pellet was resuspended and counted. Different cell concentrations (5˜10×10^4 cells/mL) were prepared according to the growth cycle of each cell line and then seeded on a 96-well plate (Corning), 100 μL/well. The cells were incubated overnight at 37° C., 5% CO2. The compounds were added to the cells on the second day with 2 wells in parallel. The final concentration of organic solvent shall not exceed 1%. The cells were continually incubated for 3 to 5 days, and then subjected to MTT assay.
(§6) The compound was stored in a concentration of 10 mM at −20° C. and diluted to 2- or 10-fold series prior to use.
(§7) Dojindo CCK8 reagent kit was used as MTT assay. […] FC meter was used as microplate reader.
(§8) For adherent cells, culture medium was removed and immediately replaced with the fresh prepared medium which contains 10% CCK8 reagent (100 μL/well). For the suspension cells, CCK8 was directly added to 10% of the final concentration. The cells were continually incubated for 1˜4 h. […] The experiment was independently repeated 1˜3 times, and subject to biological statistical analysis. 4. Experimental Results
(§9) The initial concentration of the compound was 5,000 nM, then it was serially diluted by 2-fold or 10-fold to 0.01 nM. The GI50 value of each test compound was calculated according to the GI50 assay and calculation method. The experiments were repeated 1 to 3 times, and data were subjected to biological statistical analysis.

Assay [2] has as its system MOLM-13 (FLT3 ITD+/− mutant type). Kind of assay: In vitro growth inhibition (GI50), MOLM-13. It counts as cell-based, human. The following applies: Homo sapiens, MOLM-13; Cell lines of leukemia; read-out: GI 50 MOLM-13 FLT3 (ITD+/−).
Source text: as §1, §2, §3, §4, §5, §6, §7, §8, §9

The test system of another assay is RS4; 11 (FLT3 wild type). Kind of assay: In vitro growth inhibition (GI50), RS4; 11. The assay is classed as cell-based, human. The following applies: Homo sapiens, RS4-11; Cell lines of leukemia; read-out: GI 50 RS4: 11 FLT3 (WT).
Source text: as §1, §2, §3, §4, §5, §6, §7, §8, §9

Assay [3] deals with K562 (FLT3 negative expression, positive expression of BCR-ABL fusion protein). Nature of the assay: In vitro growth inhibition (GI50), K562. The note with it: Homo sapiens, Cell lines of leukemia, read-out: GI 50 K562 BCR-ABL. It counts as cell-based.
Source text: as §1, §2, §3, §4, §5, §6, §7, §8, §9

The subject of assay [4] is RAMOS (positive expression of Brutons tyrosine protein kinase). Kind of assay: In vitro growth inhibition (GI50), RAMOS. The assay is classed as cell-based. The following applies: Homo sapiens, Cell lines of leukemia, read-out: GI 50 Ramos BTK.
Source text: as §1, §2, §3, §4, §5, §6, §7, §8, §9

A further assay relates to U937 (FLT3 wild-type). Nature of the assay: In vitro growth inhibition (GI50), U937. The assay is classed as cell-based. The note with it: Homo sapiens, U-937; Cell lines of leukemia; read-out: GI 50 U937 FLT 3(WT).
Source text: as §1, §2, §3, §4, §5, §6, §7, §8, §9

In assay [5] the test system is Kasumi-1 (c-Kit N822K mutant type). Kind of assay: In vitro growth inhibition (GI50), Kasumi-1. It counts as cell-based. The following applies: Homo sapiens, Cell lines of leukemia, read-out: GI 50 Kasumi-1 Kit (N822K).
Source text: as §1, §2, §3, §4
as §5, with “Adherent cells were digested with 0.25% pancreatin-EDTA (Gibco). The suspension” for “The suspension”
(§10) The compound of the present invention and the control compound were dissolved in DMSO (Sigma) respectively, with the purity of more than 98%. The compound was stored in a concentration of 10 mM at −20° C. and diluted to 2- or 10-fold series prior to use.
(§11) Dojindo CCK8 reagent kit was used as MTT assay. THERMO […] FC meter was used as microplate reader.
(§12) For adherent cells, culture medium was removed and immediately replaced with the fresh prepared medium which contains 10% CCK8 reagent (100 μL/well). For the suspension cells, CCK8 was directly added to 10% of the final concentration. The cells were continually incubated for 1˜4 h. When a dark yellow color could be observed in the solvent control wells, the absorbance value at OD450 nm was measured and the cell growth rate was calculated according to the following formula: Cell Growth Rate (%)=100*(T−T0)/(C−T0) T=optical density of drug treatment cell well—optical density of blank control well; T0=optical density of cell well before drug treatment—optical density of blank control well; C=optical density of cell well of solvent control group—optical density of blank control well. The concentration value of 50% inhibition of cell growth (GI50) was calculated according to the drug concentration and cell growth rate curve. […]

Assay [6] relates to KG-1 (expressing FGFR1OP2-FGFR1 fusion protein). Nature of the assay: In vitro growth inhibition (GI50), KG-1. The assay is classed as cell-based. The following applies: Homo sapiens; Cell lines of leukemia; read-out: GI 50 KG-1 FGFR1OP 2-FGFR1.
Source text: as §1, §2, §3, §4, §5, §6, §7, §8, §9

For another assay, the system named is HL-60 (FLT3 wild type). Kind of assay: In vitro growth inhibition (GI50), HL-60. The note with it: Homo sapiens, Cell lines of leukemia, read-out: GI 50 HL60 FLT3 (WT). It counts as cell-based.
Source text: as §1, §2, §3, §4
as §5, with “Adherent cells were digested with 0.25% pancreatin-EDTA (Gibco). The suspension” for “The suspension”
as §10, §11, §12

The subject of assay [7] is OCI-AML3 (NPMc+ mutant type). Kind of assay: In vitro growth inhibition (GI50), OCI-AML3. It counts as cell-based. The following applies: Homo sapiens, OCI-AML-3; Cell lines of leukemia; read-out: GI 50 OCI- AML3 NPMc+.
Source text: as §1, §2, §3, §4, §5, §6, §7, §8, §9

`CCOc1ccc2c(c1)ncn2-c1ccc(NC(=O)Nc2cc(C(C)(C)C)on2)cc1` [Compound 6, 1-(5-tert-butyl-isoxazol-3-yl)-3-[4-(5-ethoxyl-benzimidazol-1-yl)-phenyl]-urea]: the GI50 is 0.0001 to 0.001 µM in [1]; 0.0001 to 0.001 µM in [2]; over 1 µM in the assay on RS4; 11 (FLT3 wild type); over 1 µM in assay [3]; over 1 µM in assay [4]; over 1 µM with U937 (FLT3 wild-type). The GI50 (in assay [5]; in [6]; in the assay on HL-60 (FLT3 wild type); in assay [7]) was over 1 µM each time.
Turning to `CCCCCCOc1ccc2c(c1)ncn2-c1ccc(NC(=O)Nc2cc(C(C)(C)C)on2)cc1` [Compound 7, 1-(5-tert-butyl-isoxazol-3-yl)-3-[4-(5-hexyloxyl-benzimidazol-1-yl)-phenyl]-urea], the GI50 in assay [1] was 0.0001 to 0.001 µM; in assay [2], 0.0001 to 0.001 µM; with RS4; 11 (FLT3 wild type), over 1 µM; in assay [3], over 1 µM; in assay [4], over 1 µM; in the assay on U937 (FLT3 wild-type) it was over 1 µM. Besides, the GI50 (in [5]; in assay [6]; in the assay with HL-60 (FLT3 wild type); in assay [7]) was over 1 µM each time.
Regarding `CC(C)Oc1ccc2c(c1)ncn2-c1ccc(NC(=O)Nc2cc(C(C)(C)C)on2)cc1` [Compound 8, 1-(5-tert-butyl-isoxazol-3-yl)-3-[4-(5-isopropoxy-benzimidazol-1-yl)-phenyl]-urea], the GI50 in assay [1] was 0.0001 to 0.001 µM; in assay [2], 0.0001 to 0.001 µM; with RS4; 11 (FLT3 wild type), over 1 µM; in [3] it was over 1 µM; in assay [4] it was over 1 µM; with U937 (FLT3 wild-type) it was over 1 µM. Besides, the GI50 (in assay [5]; in assay [6]; with HL-60 (FLT3 wild type); in [7]) was over 1 µM in each case.
Turning to `CC1(COc2ccc3c(c2)ncn3-c2ccc(NC(=O)Nc3cc(C(C)(C)C)on3)cc2)COC1` [Compound 9, 1-(5-tert-butyl-isoxazol-3-yl)-3-{4-[5-(3-methyl-oxetan-3-ylmethoxy)-benzimidazol-1-yl]-phenyl]urea], the GI50 in [1] is 0.0001 to 0.001 µM; in [2], 0.0001 to 0.001 µM; in the assay with RS4; 11 (FLT3 wild type) it was over 1 µM; in assay [3], over 1 µM; in assay [4], over 1 µM; in the assay with U937 (FLT3 wild-type), over 1 µM. The GI50 (in assay [5]; in assay [6]; in the assay with HL-60 (FLT3 wild type); in assay [7]) was over 1 µM throughout.
On to `CC(C)(C)c1cc(NC(=O)Nc2ccc(-n3cnc4cc(OCC5CCCO5)ccc43)cc2)no1` (centres unmarked) [Compound 10, 1-(5-tert-butyl-isoxazol-3-yl)-3-{4-[5-(tetrahydrofuran-2-ylmethoxy)-benzimidazol-1-yl]-phenyl}-urea], for which the GI50 in assay [1] is 0.0001 to 0.001 µM; in assay [2], 0.0001 to 0.001 µM; in the assay with RS4; 11 (FLT3 wild type), over 1 µM; in assay [3] it was over 1 µM; in assay [4] it was over 1 µM; in the assay on U937 (FLT3 wild-type) it was over 1 µM. Also, the GI50 (in [5]; in assay [6]; in the assay with HL-60 (FLT3 wild type); in assay [7]) was over 1 µM in each case.
Consider `CCOCCOc1ccc2c(c1)ncn2-c1ccc(NC(=O)Nc2cc(C(C)(C)C)on2)cc1` [Compound 13, 1-(5-tert-butyl-isoxazol-3-yl)-3-{4-[5-(2-ethoxyl-ethoxyl)-benzimidazol-1-yl]-phenyl]-urea], for which the GI50 is 0.0001 to 0.001 µM in [1]; 0.0001 to 0.001 µM in assay [2]; over 1 µM in the assay with RS4; 11 (FLT3 wild type); over 1 µM in assay [3]; over 1 µM in [4]; over 1 µM in the assay with U937 (FLT3 wild-type). Moreover, the GI50 (in assay [5]; in assay [6]; in the assay on HL-60 (FLT3 wild type); in assay [7]) was over 1 µM each time.
Turning to `CC(C)(C)c1cc(NC(=O)Nc2ccc(-n3cnc4cc(OC(=O)N5CCOCC5)ccc43)cc2)no1` [Compound 15, 1-{4-[3-(5-tert-butyl-isoxazol-3-yl)-carbamido]-phenyl}-1H-benzimidazol-5-yl morpholin-4-carboxylate], the GI50 is 0.0001 to 0.001 µM in [1]; 0.0001 to 0.001 µM in assay [2]; over 1 µM with RS4; 11 (FLT3 wild type); over 1 µM in assay [3]; over 1 µM in assay [4]; over 1 µM in the assay with U937 (FLT3 wild-type). The GI50 (in [5]; in [6]; in the assay with HL-60 (FLT3 wild type); in [7]) was over 1 µM each time.
Consider `CC(C)(C)c1cc(NC(=O)Nc2ccc(-n3cnc4cc(OCCN5CCCCC5)ccc43)cc2)no1` [Compound 17, 1-(5-tert-butyl-isoxazol-3-yl)-3-{4-[5-(2-piperidin-1-yl-ethoxyl)-benzimidazol-1-yl]-phenyl}-urea], for which the GI50 was in the range of 0.0001 to 0.001 µM in assay [1]; 0.0001 to 0.001 µM in [2]; 0.1 to 1 µM with RS4; 11 (FLT3 wild type); 0.1 to 1 µM in assay [3]; 0.1 to 1 µM in [4]; 0.1 to 1 µM in the assay with U937 (FLT3 wild-type). The GI50 was 0.1 to 1 µM in [5], 0.1 to 1 µM in assay [6], 0.1 to 1 µM in the assay with HL-60 (FLT3 wild type) and over 1 µM in assay [7].
